Reference: patent publication US20240109941A1 (University of California, published 2024)
Read-outs that look alike come from different tables or passages of the source.

B1: CghSAMPa helix 2 (peptide)
peptide: SHVEYANLFLANLEKVLVIDYK
notes: 22-residue fragment of CghSAMPa holding only the second alpha-helix; In the native gel it ran as polymers, likely hexamers; also called MaSSAMP-helix2; SAMP-helix 2
B2: CghSAMPa (full length stable antimicrobial peptide) (peptide)
chain: MCCNRGKNVSIENLHQGFTHIFESTFESTEGVAEYVSHPSHVEYANLFLANLEKVLVIDYKPTTVRV
notes: In the native gel it ran as polymers, 'likely hexamers based on the molecular weight'; also called MaSSAMP; Syd72SSAMP1

How the values were obtained:
[1] = test system: Liberibacter crescens; type: cell-based; conditions: Liberibacter crescens 10^6/mL; for anti-bacterial activity (viability staining, confocal microscopy): 30 μM, 2 hours
[2] = test system: defense marker genes, including PR2, PAL, and CHI; type: in vivo; conditions: 10 μM spray, Carrizo seedlings
[3] = target: the molecule itself; assay: native PAGE, self-association
[4] = test system: B. thuringiensis; type: cell-based; conditions: compared to L. crescens; concentrations shown in FIG. 5
[5] = test system: E. coli; type: cell-based; conditions: compared to L. crescens; concentrations shown in FIG. 5

Molecule | anti-bacterial activity (viability staining, confocal microscopy) [1] | anti-bacterial activity (viability staining, confocal microscopy) ([1]; listed as helix 2) | anti-bacterial activity compared to full length CghSAMPa (viability staining) ([1]; 5 hours, same concentration or triple dosages of helix 2 vs full length) | induction of defense response (PR2, PAL, CHI expression normalized to Ubiquitin) ([2]; 1 day post-treatment) | duration of defense gene induction ([2]; time course up to 7 days post treatment) | binding result [3] | tolerance of B. thuringiensis to SAMP treatment [4] | tolerance of E. coli to SAMP treatment [5]
SHVEYANLFLANLEKVLVIDYK [CghSAMPa helix 2, polypeptide containing CghSAMPa helix 2] | plays an important role in anti-bacterial activity | found to be a functional SAMP | retained much of the anti-bacterial activity of full length SAMP | induced a defense response | maintained for the 7-day time period | – | – | –
B1 | – | – | – | – | – | binds | – | –
B2 | – | – | – | – | – | binds | highly tolerant | more tolerant of SAMP treatment compared to L. crescens
